Experimental data as given in US7531320B2, “Modulation of β-catenin/TCF-activated transcription” (priority 2003, dated 2009).

Experiments:
[1] = test system: cyclin D1 promoter; test: ChIP assay, cyclin D1 promoter in SW480 cells; assay type: cell-based, human; conditions: 25 μM
Method: FIG. 5. COMPOUND 1 inhibits the expression of cyclin D1. • A. Cyclin D1 levels are decreased with COMPOUND 1 treatment. Western blot analysis was performed on 25 μg of SW480 whole cell lysates treated for 4, 8, or 24 hours with either 25 μM of COMPOUND 1 or control (0.5% DMSO). Immunoblotting was performed using anti-Cyclin D1 antibodies (Santa Cruz Biotechnology Inc.). • B. In vivo occupancy of cyclin D1 and c-myc promoters by CBP and p300. […] ChIP assays were performed on promoter of c-myc from SW480 cells which was treated for 8 hours with COMPOUND 1 (25 μM) or control (0.5% DMSO). CBP (AC-26, a generous gift from Dr. David Livingston, Harvard University, Boston, Mass.) or p300 (C-20, Santa Cruz Biotechnology Inc.) specific antibodies were used to evaluate the promoter occupancy by CBP or p300 in presence of COMPOUND 1 or control (DMSO) treatment.
Formaldehyde cross-linking and chromatin immunoprecipitation assays of SW480 cells were performed as described previously (Barlev et al., “Acetylation of p53 activates transcription through recruitment of coactivators/histone acetyltransferases,” Mol. Cell 8:1243-54 (2001); El-Osta et al., “Analysis of chromatin-immunopurified MeCP2-associated fragments,” Biochem. Biophys. Res. Commun. 289:733-37 (2001); Shang et al., “Formation of the androgen receptor transcription Complex,” Mol. Cell 9:601-10 (2002)). […]

[2] = test system: β-catenin/TCF reporter gene construct; test: β-catenin/TCF luciferase reporter assay in SW480 cells; assay type: cell-based, human
Method: FIG. 1. COMPOUND 1 inhibits β-catenin/TCF transcription. • A(i) and A(ii). Structures of COMPOUND 1, COMPOUND 2, COMPOUND 3, COMPOUND 4, and COMPOUND 5. • B(i) and B(ii). […] SW480 cells (10^5), (FIG. 1B(i)), were transfected with β-catenin/TCF luciferase construct. Cells were treated with COMPOUND 1 (1-64 μM). 24 hours post treatment lysates were prepared and subjected to dual luciferase assay. The data is represented in different form in FIG. 1B(ii). • C. COMPOUND 1 has no effect on NFAT reporter construct. Stably transfected Jurkat cells, right panel, with an NFAT reporter construct, were stimulated with PMA (10 ng/ml)/lonomycin (1 μg/ml), and treated with COMPOUND 1 (0.781-50 μM). 24 hours post treatment lysates were prepared and subjected to dual luciferase assay. All experiments were performed in duplicate and the values plotted as means +/−standard deviation. • D. CBP is the molecular target of COMPOUND 1. Nuclear extracts of SW480 cells were incubated with streptavidin-agarose beads coated with COMPOUND 2 (25 μM). Beads were washed 3 times and the eluted were subjected to gel electrophoresis and immunoblotting, with anti-CBP antibodies. […] The lysates were desalted using G-25 1 cc columns (Pharmacia) to remove the unbound ^14C-labeled-COMPOUND 1, and ^14C-labeled-COMPOUND 1 incorporation was measured. […]

SMILES: O=C1C(Cc2ccc(O)cc2)N2C(=O)CCN(C(=O)NCc3ccccc3)C2CN1Cc1cccc2ccccc12 (stereo not drawn) [COMPOUND 1]
- Association of CBP with the cyclin D1 promoter [1]: completely and selectively blocks
- Change of IC50 of COMPOUND 1 on transfection of increasing concentration of CBP ([2]; SW480 cells cotransfected with CBP (not β-catenin), dose-dependent): increased the IC50
- IC50 ([2]; SW480 cells, 1-64 μM, 24 hours post treatment, dual luciferase assay): 5 µM
